Measured values: patent publication US8512970B2, “Rapid bioluminescence detection assay” (The Secretary of State for Health, priority 2009, dated 2013)
Entries after “also recorded” stand apart in the source; their conditions may differ. Counter-ions that a name gives are not always drawn.

Assays:
[1] = target: T1, yeast AK (AK from Saccharomyces cerevisiae) (Saccharomyces cerevisiae, UniProt P07170); assay: Distinguishing reporter adenylate kinases from yeast adenylate kinase (FIG. 7B); assay type: biochemical
T1 construct: purchased Sigma
T1 sequence (P07170 whole entry): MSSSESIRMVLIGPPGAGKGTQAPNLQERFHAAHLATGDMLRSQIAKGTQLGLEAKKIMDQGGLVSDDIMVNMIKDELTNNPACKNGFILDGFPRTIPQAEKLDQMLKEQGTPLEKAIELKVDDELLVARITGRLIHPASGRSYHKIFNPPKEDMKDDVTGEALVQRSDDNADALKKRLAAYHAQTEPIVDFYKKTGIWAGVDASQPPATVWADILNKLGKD

[2] = target: T2, adenylate kinase from T. maritima (Thermotoga maritima, UniProt Q9X1I8); assay: Inhibition of reporter adenylate kinase by Ap5a, ATP detected with luciferin/luciferase
T2 sequence (Q9X1I8 1-220): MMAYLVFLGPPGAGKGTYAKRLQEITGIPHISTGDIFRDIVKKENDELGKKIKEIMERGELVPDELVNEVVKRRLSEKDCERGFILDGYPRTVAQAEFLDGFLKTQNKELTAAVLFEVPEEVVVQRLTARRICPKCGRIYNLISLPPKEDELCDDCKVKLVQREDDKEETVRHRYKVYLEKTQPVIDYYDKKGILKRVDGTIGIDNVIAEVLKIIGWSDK
Method: (§1) The reporter adenylate kinases from S. acidocaldarius or T. maritima were purified as described previously. Rabbit myokinase (muscle adenylate kinase) was obtained from Sigma. 100 ng of each enzyme was incubated with the inhibitor at the concentrations shown in reaction buffer (15 mM MgAc, 10 mM tris, 1 mM EDTA pH 7.75) for 5 minutes. ADP was added to a final concentration of 70 μM and the reaction incubated before addition of luciferin and luciferase.

[3] = target: luciferase (Photinus pyralis, UniProt P08659); assay: Effect of inhibitor on luciferase; assay type: biochemical
Chain of luciferase (P08659 whole entry, species assumed): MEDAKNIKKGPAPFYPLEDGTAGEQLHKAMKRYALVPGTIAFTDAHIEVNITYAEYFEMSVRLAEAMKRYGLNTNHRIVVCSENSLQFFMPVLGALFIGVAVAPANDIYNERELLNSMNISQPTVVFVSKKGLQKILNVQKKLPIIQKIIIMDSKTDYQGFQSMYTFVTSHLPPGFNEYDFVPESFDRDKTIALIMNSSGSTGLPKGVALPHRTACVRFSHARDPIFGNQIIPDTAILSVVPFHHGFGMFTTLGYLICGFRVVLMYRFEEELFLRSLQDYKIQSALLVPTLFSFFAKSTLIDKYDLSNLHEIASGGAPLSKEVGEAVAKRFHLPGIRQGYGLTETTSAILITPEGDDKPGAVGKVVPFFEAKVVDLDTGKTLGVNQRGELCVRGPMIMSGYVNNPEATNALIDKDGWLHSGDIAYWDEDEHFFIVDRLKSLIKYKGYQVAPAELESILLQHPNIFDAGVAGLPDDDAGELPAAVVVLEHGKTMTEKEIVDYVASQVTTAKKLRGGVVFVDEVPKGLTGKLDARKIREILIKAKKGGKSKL

[4] = target: adenylate kinase from S. acidocaldarius (Sulfolobus acidocaldarius, UniProt P35028); assay: Inhibition of reporter adenylate kinase by Ap5a, ATP detected with luciferin/luciferase
Chain of adenylate kinase from S. acidocaldarius (P35028 whole entry): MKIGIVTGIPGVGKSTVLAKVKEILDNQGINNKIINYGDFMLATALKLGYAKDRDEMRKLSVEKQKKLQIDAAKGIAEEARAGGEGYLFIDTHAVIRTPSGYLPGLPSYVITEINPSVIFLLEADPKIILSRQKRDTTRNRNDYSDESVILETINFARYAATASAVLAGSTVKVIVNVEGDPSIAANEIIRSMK
Method: as §1

[5] = target: T3, Rabbit myokinase (muscle adenylate kinase) (Oryctolagus cuniculus, UniProt P00569); assay: Inhibition of non-reporter (endogenous) tissue kinase by Ap5a, ATP detected with luciferin/luciferase
T3 sequence (P00569 1-194): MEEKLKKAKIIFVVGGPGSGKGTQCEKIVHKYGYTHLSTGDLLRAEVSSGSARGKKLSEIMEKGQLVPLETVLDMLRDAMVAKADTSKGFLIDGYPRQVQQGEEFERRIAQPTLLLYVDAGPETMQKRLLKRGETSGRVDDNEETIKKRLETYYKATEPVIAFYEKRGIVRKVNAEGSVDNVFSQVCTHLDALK
Method: as §1

| Compound | distinguishing bacterial and archaeal reporter adenylate kinases from enzyme of fungal origin (yeast AK) [1] | IC50 [2] | effect on the activity of the luciferase [3] | IC50 [4] | IC50 [5] |
| --- | --- | --- | --- | --- | --- |
| Diadenosine hexaphosphate [Ap6A] | do not allow for an assay to distinguish | – | – | – | – |
| Nc1ncnc2c1ncn2[C@@H]1O[C@H](COP(=O)(O)OP(=O)(O)OP(=O)(O)OP(=O)(O)OP(=O)(O)OC[C@H]2O[C@@H](n3cnc4c(N)ncnc43)[C@H](O)[C@@H]2O)[C@@H](O)[C@H]1O [Ap5A, Diadenosine pentaphosphate pentasodium salt] | can still be used to distinguish; also recorded: discriminates reporter kinase from non-reporter kinase | 4.3 µM | does not have a detrimental effect | 10.4 µM | 0.06 µM |
| Nc1ncnc2c1ncn2[C@@H]1O[C@H](COP(=O)(O)OP(=O)(O)OP(=O)(O)OP(=O)(O)OC[C@H]2O[C@@H](n3cnc4c(N)ncnc43)[C@H](O)[C@@H]2O)[C@@H](O)[C@H]1O [Ap4A, Diadenosine tetraphosphate] | do not allow for an assay to distinguish | – | – | – | – |
